target: 15-hydroxyprostaglandin dehydrogenase [NAD(+)] (Homo sapiens) (UniProt P15428); assay: HPGD binders by thermal shift, biophysical, DSF, SYPRO orange, purified protein (AID 388); conditions: at 10 µM, buffer 10 mM HEPES, pH 7.5, NaCl 150 mM, NADH 40 µM, active compounds read high
Sequence (P15428 whole entry, looked up): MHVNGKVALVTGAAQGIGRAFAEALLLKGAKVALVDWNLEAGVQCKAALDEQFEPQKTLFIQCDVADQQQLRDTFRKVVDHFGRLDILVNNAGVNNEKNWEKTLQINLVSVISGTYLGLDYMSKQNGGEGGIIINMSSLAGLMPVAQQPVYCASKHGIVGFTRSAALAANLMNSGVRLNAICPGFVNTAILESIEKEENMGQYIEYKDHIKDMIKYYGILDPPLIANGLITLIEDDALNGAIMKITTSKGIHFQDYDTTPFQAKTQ

| SMILES | Tm shift [Celsius] |
| --- | --- |
| CN(CCOc1ccc(CC2SC(=O)NC2=O)cc1)c1ccccn1 (stereo unspecified) | 2.5 |

same assay, conditions: at 10 µM, buffer 10 mM HEPES, pH 7.5, NaCl 150 mM, active compounds read high

| SMILES | Tm shift [Celsius] |
| --- | --- |
| CCc1ccc(CCOc2ccc(CC3SC(=O)CC3=O)cc2)nc1 (stereo unspecified) | 2.28 |
| CC1(C)[C@@H](OC(=O)CCC(=O)O)CC[C@]2(C)[C@H]3C(=O)C=C4[C@@H]5C[C@@](C)(C(=O)O)CC[C@]5(C)CC[C@@]4(C)[C@]3(C)CC[C@@H]12 | 2.35 |
| O=C1CC(c2ccc(O)cc2)Oc2cc(O)cc(O)c21 (stereo unspecified) | 3.1 |
| C[C@@]1(c2ccc(O)cc2)CC(=O)c2c(O)cc(O)cc2O1 | 2.25 |
| CCc1nnc(NS(=O)(=O)c2ccc(NC(=O)/C=C/c3ccc(F)cc3)cc2)s1 | 2.9 |
| O=c1c(-c2ccc(O)cc2)coc2cc(O)cc(O)c12 | 2.12 |
| O=c1cc(-c2ccc(O)c(O)c2)oc2cc(O)cc(O)c12 | 2.19 |
| O=C(O)c1cccnc1Nc1cccc(C(F)(F)F)c1 | 2.1 |
| COc1ccc2c(c1)c(CC(=O)O)c(C)n2C(=O)c1ccc(Cl)cc1 | 2.1 |
| O=c1cc(-c2ccccc2)oc2cc(O)c(O)c(O)c12 | 2.9 |
| COc1cc([C@@H]2Oc3cc([C@@H]4Oc5cc(O)cc(O)c5C(=O)[C@H]4C)ccc3O[C@H]2CO)ccc1O | 2.4 |
| CCc1nnc(NS(=O)(=O)c2ccc(NC(=O)c3ccc(Cl)cc3Cl)cc2)s1 | 2.2 |
| O=C1NC(=O)c2c1c1c3ccccc3[nH]c1c1[nH]c3cc(Br)ccc3c21 | 2.11 |
| Cc1c(O)cc(O)c2c1OC(c1ccc(O)c(O)c1)C(=O)C2=O (stereo unspecified) | 2.5 |
| CC1=CC(=O)C=C(C)C1=O | 6.05 |

— PubChem BioAssay AID388 (SGCOxCompounds, 2006)
